Data taken from patent publication US20240158377A1, “NOVEL SALT FORMS OF A 4H-PYRAN-4-ONE STRUCTURED CYP11A1 INHIBITOR” (Orion Corporation, priority 2021, published 2024).
Counter-ions that a name gives are not always drawn. Values belong to the compound of their own block, whether it stands above or below them.

Experiments:
Format in all cases: physicochemical
[1] = Weight loss of the salts during heating by thermogravimetric analysis (TGA); details: for Weight loss: TGA, heating rate 10° C./min, open pan
Protocol: Weight loss of the salts during heating was determined by thermogravimetric analysis (TGA) thermograms collected on TGA equipment (TA Instruments). Heating rate 10° C./min, 25-300° C., open pan.
Weight loss of each salt of compound (I) during heating was determined by thermogravimetric analysis (TGA) thermograms collected on TGA equipment (TA Instruments). Heating rate 10° C./min, 25-300° C., open pan.

[2] = as above; details: heating rate 10° C./min, 30-250° C., open pan, weight loss over 30-200° C.
[3] = Chemical stability: accelerated stability study of pressed tablets, degradation product A, prediction with ASAPprime software; details: summary statement
Protocol: The degradation rate of various salts of compound (I) was determined by measuring the amount of shelf-life determining degradation product 2-[(5-{[1-(methanesulfonyl)piperidin-4-yl]methoxy}-4-oxo-4H-pyran-2-yl)methyl]-2,3-dihydro-1H-isoindol-1 -one (degradation product A) from an accelerated stability study wherein samples were stored at various different temperature and relative humidity conditions. Each sample consisted of a pressed tablet containing a constant amount of the tested salt together with conventional excipients. The predicted increase (Δ %) of the degradation product A after 5 years was calculated with ASAPprime® software using the following parameters: • Bottle volume and material: 100 ml (HDPE HIS) • Desiccant: Silica (1 g) • Tablet amount: 60 • Conditions: 25° C./60% RH

Weight loss ([1]; weight loss over 25-100° C.): 9.9%
Structure (SMILES): CS(=O)(=O)N1CCC(COc2coc(CN3Cc4ccccc4C3)cc2=O)CC1 [1,2-Ethanedisulfonic acid salt, 2-(isoindolin-2-ylmethyl)-5-((1-(methylsulfonyl)piperidin-4-yl)methoxy)-4H-pyran-4-one]

Weight loss ([1]; weight loss over 25-220° C.): 0.3%
Structure (SMILES): O=S(=O)(O)c1cccc2c(S(=O)(=O)O)cccc12 [1,5-Naphthalenedisulfonic acid]

Weight loss ([1]; weight loss over 25-225° C.): <0.1%
Structure (SMILES): O=S(=O)(O)c1ccc2ccccc2c1 [2-Naphthalenesulphonic acid]

Weight loss ([1]; weight loss over 25-220° C.): 0.3%
Structure (SMILES): CS(=O)(=O)N1CCC(COc2coc(CN3Cc4ccccc4C3)cc2=O)CC1 [Benzenesulfonic acid salt, 2-(isoindolin-2-ylmethyl)-5-((1-(methylsulfonyl)piperidin-4-yl)methoxy)-4H-pyran-4-one]

Weight loss ([1]; weight loss over 25-190° C.): <0.3%
Structure (SMILES): CS(=O)(=O)N1CCC(COc2coc(CN3Cc4ccccc4C3)cc2=O)CC1 [Ethanesulfonic acid salt, 2-(isoindolin-2-ylmethyl)-5-((1-(methylsulfonyl)piperidin-4-yl)methoxy)-4H-pyran-4-one]

Weight loss ([1]; weight loss over 25-190° C.): 0.5%
Structure (SMILES): CS(=O)(=O)N1CCC(COc2coc(CN3Cc4ccccc4C3)cc2=O)CC1 [Hydrochloric acid salt (form 3), 2-(isoindolin-2-ylmethyl)-5-((1-(methylsulfonyl)piperidin-4-yl)methoxy)-4H-pyran-4-one]

Weight loss ([1]; weight loss over 25-120° C.): 3.2%
Structure (SMILES): CS(=O)(=O)N1CCC(COc2coc(CN3Cc4ccccc4C3)cc2=O)CC1 [Maleic acid salt (form 3), 2-(isoindolin-2-ylmethyl)-5-((1-(methylsulfonyl)piperidin-4-yl)methoxy)-4H-pyran-4-one]

Weight loss ([1]; weight loss over 25-75° C.): 5%
Structure (SMILES): CS(=O)(=O)N1CCC(COc2coc(CN3Cc4ccccc4C3)cc2=O)CC1 [Methanesulfonic acid salt, 2-(isoindolin-2-ylmethyl)-5-((1-(methylsulfonyl)piperidin-4-yl)methoxy)-4H-pyran-4-one]

Weight loss ([1]; weight loss over 25-205° C.): 0.9%
Structure (SMILES): CS(=O)(=O)N1CCC(COc2coc(CN3Cc4ccccc4C3)cc2=O)CC1 [Nitric acid salt, 2-(isoindolin-2-ylmethyl)-5-((1-(methylsulfonyl)piperidin-4-yl)methoxy)-4H-pyran-4-one]

Weight loss ([1]; weight loss over 25-175° C.): 0.4%
Structure (SMILES): CS(=O)(=O)N1CCC(COc2coc(CN3Cc4ccccc4C3)cc2=O)CC1 [Oxalic acid salt (form 1), 2-(isoindolin-2-ylmethyl)-5-((1-(methylsulfonyl)piperidin-4-yl)methoxy)-4H-pyran-4-one]

Weight loss ([1]; weight loss over 25-100° C.): 8%
Structure (SMILES): CS(=O)(=O)N1CCC(COc2coc(CN3Cc4ccccc4C3)cc2=O)CC1 [Sulfuric acid salt (form 2), 2-(isoindolin-2-ylmethyl)-5-((1-(methylsulfonyl)piperidin-4-yl)methoxy)-4H-pyran-4-one]

Weight loss ([1]; weight loss over 25-220° C.): 0.1%
Structure (SMILES): CS(=O)(=O)N1CCC(COc2coc(CN3Cc4ccccc4C3)cc2=O)CC1 [hydrobromic acid salt, 2-(isoindolin-2-ylmethyl)-5-((1-(methylsulfonyl)piperidin-4-yl)methoxy)-4H-pyran-4-one]

Weight loss [2]: 0.2% | weight loss during heating (in words) ([1]; crystalline salt, summary statement): low weight loss during heating | solid-state stability in pharmaceutical dosage forms such as tablets (in words) [3]: excellent sold-state stability
Structure (SMILES): CS(=O)(=O)N1CCC(COc2coc(CN3Cc4ccccc4C3)cc2=O)CC1 [p-toluenesulfonic acid salt, 2-(isoindolin-2-ylmethyl)-5-((1-(methylsulfonyl)piperidin-4-yl)methoxy)-4H-pyran-4-one]
